Experimental data from paper PMC8436411 (ACS Medicinal Chemistry Letters, 2021).
Values after ≈ are worked out from the molar mass of the structure shown. Values joined by “and” are separate entries in the source; they are usually repeats but may differ in a detail not shown here. Equal entries are not always repeated. Where two headings read alike, the source gives them in different places.

What was measured:
S. aureus DNA gyrase = biological target: T1, S. aureus DNA gyrase (Staphylococcus aureus, UniProt P20831); test: DNA gyrase supercoiling inhibition assay (S. aureus); type: biochemical; conditions: mean of two independent measurements ± SD
T1 construct: purchased Inspiralis (Norwich, UK)
T1 sequence (P20831 whole entry, looked up): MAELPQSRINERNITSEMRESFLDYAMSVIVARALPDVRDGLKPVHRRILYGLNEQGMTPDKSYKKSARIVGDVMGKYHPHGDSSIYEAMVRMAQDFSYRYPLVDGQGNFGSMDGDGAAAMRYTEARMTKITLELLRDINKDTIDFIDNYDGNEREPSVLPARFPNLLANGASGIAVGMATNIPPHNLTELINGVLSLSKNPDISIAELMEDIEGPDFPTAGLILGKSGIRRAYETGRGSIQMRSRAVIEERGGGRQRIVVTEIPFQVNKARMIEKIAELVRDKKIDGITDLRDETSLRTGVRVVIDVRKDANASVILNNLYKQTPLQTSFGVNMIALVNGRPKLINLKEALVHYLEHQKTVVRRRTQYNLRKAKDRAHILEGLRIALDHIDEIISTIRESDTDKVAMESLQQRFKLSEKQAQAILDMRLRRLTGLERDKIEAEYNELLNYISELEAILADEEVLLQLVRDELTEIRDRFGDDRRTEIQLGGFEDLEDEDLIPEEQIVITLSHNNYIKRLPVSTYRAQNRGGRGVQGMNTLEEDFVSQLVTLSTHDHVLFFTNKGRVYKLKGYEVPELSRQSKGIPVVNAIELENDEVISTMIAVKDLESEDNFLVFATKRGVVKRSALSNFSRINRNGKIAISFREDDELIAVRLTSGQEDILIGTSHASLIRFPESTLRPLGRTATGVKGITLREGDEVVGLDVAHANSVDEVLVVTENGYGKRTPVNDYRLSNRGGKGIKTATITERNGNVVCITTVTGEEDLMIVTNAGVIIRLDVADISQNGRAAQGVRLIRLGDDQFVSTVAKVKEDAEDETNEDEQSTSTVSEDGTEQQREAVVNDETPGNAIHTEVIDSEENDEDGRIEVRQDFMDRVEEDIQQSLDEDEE
Experimental: We synthesized and biologically evaluated ten new compounds. We determined their inhibitory activity, expressed as IC50 values, on both Gram-positive S. aureus and Gram-negative E. coli bacterial enzymes (DNA gyrase and topo IV), respectively. The in vitro antibacterial activity, expressed as minimum inhibitory concentration (MIC), was determined against broad spectrum of bacteria, including Gram-positive (Staphylococcus aureus, methicillin-resistant Staphylococcus aureus, Streptococcus agalactiae, and Enterococcus faecalis) and Gram-negative strains (Escherichia coli, Salmonella alachua, Pseudomonas aeruginosa, and Klebsiella pneumoniae), enriched with various MRSA strains resistant to various antibiotics as well as E. coli strains with increased membrane permeability and lack of efflux pump, as well. Furthermore, the selectivity of compounds for bacterial enzyme compared to the orthologous human topoisomerase IIα was also considered. The in vitro safety profile was determined by cytotoxicity assessment on human umbilical vein endothelial cell lines (HUVEC) and HepG2 liver cancer cell lines.
Determination of DNA gyrase and topoisomerase IV inhibitory activities
To determine the IC50 values of the compounds, a Gyrase Supercoiling High Throughput Plate assay kit and a TopoIV Relaxation High Throughput Plate assay kit, commercially available from Inspiralis (Norwich, UK), were used for S. aureus and E. coli. The assays were performed on black streptavidin-coated 96-well microtiter plates (Thermo Scientific Pierce, Norwich, UK) and the wells were first […]
BSA and 0.05% [v/v] Tween-20). Biotinylated oligonucleotide diluted with the wash buffer was then immobilized in each well and the excess was removed with the wash buffer. 1.5 U of the enzyme S. aureus or E. coli DNA gyrase (topoIV) was incubated together with 0.75 μg of relaxed (supercoiled) pNO1 plasmid as substrate in the presence of 3 μl inhibitor solution in 10% DMSO and 0.008% Tween-20 at 37°C for 30 min in a final reaction volume of 30 μl in the assay buffer (S. aureus DNA gyrase: 40 mM HEPES.KOH (pH 7.6), 10 mM magnesium acetate, 10 mM DTT, 2 mM ATP, 500 mM potassium glutamate and 0.05 mg/ml albumin; E. coli DNA gyrase: 35 mM Tris.HCl (pH 7.5), 24 […]
mg/ml albumin; S. aureus topo IV: 50 mM Tris.HCl (7.5), 5 mM MgCl 2, 5 mM DTT, 1.5 mM ATP, 350 mM potassium glutamate and 0.05 mg/ml albumin; E. coli topo IV: 40 mM HEPES.KOH (pH 7.6), 100 mM potassium glutamate, 10 mM magnesium acetate, 10 mM DTT, 1 mM ATP and 50 μg/ml albumin). The reaction was stopped by adding the TF buffer (50 mM NaOAc (pH 4.7), 50 mM NaCl and 50 mM MgCl2) to allow triplex formation (biotin oligonucleotide plasmid) for another 30 min. Finally, the unbound plasmid was washed off using the TF buffer and the Promega Diamond dye was added to T10 buffer (10 mM Tris-HCl (pH 8.0), 1 mM EDTA) solution. After 15 min the solution […]
Two inhibitor concentrations of 100 and 1 μM were used for pre-screening. The IC 50 values […]
(IC50) was calculated by nonlinear regression-based fitting of the inhibition curves using the log [inhibitor] versus response-variable slope (four parameters) – symmetrical equation, in GraphPad Prism 6.0 software (GraphPad Software, CA, USA). The IC50 value represents the average of two independent measurements.
The minimum inhibitory concentrations (MICs) were determined using the broth micro-dilution method in 96-well plate format according to the Clinical and Laboratory Standards Institute

S. aureus topoIV = biological target: T2, S. aureus topoIV (Staphylococcus aureus, UniProt Q2FYS4); test: TopoIV decatenation inhibition assay (S. aureus); type: biochemical; conditions: read-out: IC50 TopoIV S. aureus, mean of two independent measurements ± SD
T2 construct: purchased Inspiralis (Norwich, UK)
T2 sequence (Q2FYS4 whole entry, looked up): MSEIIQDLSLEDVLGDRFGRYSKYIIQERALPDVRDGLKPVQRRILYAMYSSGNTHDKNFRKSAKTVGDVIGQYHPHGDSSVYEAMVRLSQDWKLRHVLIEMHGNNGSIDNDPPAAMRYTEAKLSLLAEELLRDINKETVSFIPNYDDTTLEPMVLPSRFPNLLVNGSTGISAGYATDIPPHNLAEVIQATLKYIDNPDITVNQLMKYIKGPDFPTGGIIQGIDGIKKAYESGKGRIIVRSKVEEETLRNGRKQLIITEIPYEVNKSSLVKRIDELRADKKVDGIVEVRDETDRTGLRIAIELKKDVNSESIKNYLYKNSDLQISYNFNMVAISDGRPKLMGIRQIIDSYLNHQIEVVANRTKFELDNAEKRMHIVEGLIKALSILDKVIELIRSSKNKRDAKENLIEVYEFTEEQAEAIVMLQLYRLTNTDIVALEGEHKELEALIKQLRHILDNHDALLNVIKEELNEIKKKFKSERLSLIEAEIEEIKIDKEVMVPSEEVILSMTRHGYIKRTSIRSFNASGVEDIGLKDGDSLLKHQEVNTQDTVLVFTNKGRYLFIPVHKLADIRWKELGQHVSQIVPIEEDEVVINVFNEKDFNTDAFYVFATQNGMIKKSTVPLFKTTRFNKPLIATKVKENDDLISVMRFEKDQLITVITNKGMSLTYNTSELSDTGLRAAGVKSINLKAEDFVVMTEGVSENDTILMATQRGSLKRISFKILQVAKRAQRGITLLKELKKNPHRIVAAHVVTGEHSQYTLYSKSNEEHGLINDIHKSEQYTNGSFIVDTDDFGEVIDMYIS

Human topoisomerase IIα = Human topoisomerase IIα (Homo sapiens, UniProt P11388); test: Human topoisomerase IIα residual activity; type: biochemical; conditions: read-out: Human topoisomerase IIα (%RA)
Chain of Human topoisomerase IIα (P11388 whole entry): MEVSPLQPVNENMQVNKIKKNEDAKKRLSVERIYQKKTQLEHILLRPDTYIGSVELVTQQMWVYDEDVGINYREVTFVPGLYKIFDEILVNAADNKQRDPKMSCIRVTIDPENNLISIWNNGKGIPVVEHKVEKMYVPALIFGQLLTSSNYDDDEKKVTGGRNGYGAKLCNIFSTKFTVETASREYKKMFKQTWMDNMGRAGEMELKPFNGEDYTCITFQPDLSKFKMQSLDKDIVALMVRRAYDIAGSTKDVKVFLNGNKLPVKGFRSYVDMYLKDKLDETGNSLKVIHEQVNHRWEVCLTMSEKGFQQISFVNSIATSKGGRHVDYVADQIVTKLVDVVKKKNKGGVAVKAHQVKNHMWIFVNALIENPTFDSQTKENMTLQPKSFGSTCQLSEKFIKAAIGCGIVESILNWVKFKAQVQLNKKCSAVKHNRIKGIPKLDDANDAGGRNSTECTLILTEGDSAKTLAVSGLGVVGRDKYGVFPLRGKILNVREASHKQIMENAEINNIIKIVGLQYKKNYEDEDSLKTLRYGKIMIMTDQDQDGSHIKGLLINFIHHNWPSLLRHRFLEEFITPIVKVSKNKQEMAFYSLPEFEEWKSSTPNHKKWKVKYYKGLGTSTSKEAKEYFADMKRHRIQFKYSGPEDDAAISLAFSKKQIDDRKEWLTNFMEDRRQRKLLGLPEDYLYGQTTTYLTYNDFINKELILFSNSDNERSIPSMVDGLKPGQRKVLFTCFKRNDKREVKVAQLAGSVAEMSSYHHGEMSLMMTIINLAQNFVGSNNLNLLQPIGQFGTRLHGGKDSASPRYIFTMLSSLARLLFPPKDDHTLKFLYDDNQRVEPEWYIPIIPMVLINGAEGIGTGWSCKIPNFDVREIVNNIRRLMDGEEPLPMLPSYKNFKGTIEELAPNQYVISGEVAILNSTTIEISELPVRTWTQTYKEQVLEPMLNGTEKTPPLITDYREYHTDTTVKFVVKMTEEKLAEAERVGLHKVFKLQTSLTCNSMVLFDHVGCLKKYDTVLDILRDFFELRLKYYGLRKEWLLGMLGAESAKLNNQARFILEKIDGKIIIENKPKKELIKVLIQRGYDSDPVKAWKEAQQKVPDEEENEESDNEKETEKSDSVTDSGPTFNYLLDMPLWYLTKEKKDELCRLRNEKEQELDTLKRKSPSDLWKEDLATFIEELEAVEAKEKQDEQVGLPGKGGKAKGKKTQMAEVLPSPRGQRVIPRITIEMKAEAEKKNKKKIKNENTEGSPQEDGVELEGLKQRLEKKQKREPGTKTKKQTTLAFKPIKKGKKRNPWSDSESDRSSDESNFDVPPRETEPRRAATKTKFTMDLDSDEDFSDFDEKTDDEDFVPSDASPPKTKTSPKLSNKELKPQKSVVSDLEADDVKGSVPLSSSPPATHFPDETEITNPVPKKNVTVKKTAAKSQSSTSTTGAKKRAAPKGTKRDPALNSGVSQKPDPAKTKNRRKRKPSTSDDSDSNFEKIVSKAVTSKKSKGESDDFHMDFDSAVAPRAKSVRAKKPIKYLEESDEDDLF

MRSA (QA-11.7) [1] = test: microbe, parasite or virus in culture; conditions: Staphylococcus aureus, read-out: MIC MRSA (QA-11.7)
Experimental: (§1) The in vitro antibacterial activity, expressed as minimum inhibitory concentration (MIC), was determined against broad spectrum of bacteria, including Gram-positive (Staphylococcus aureus, methicillin-resistant Staphylococcus aureus, Streptococcus agalactiae, and Enterococcus faecalis) and Gram-negative strains (Escherichia coli, Salmonella alachua, Pseudomonas aeruginosa, and Klebsiella pneumoniae), enriched with various MRSA strains resistant to various antibiotics as well as E. coli strains with increased membrane permeability and lack of efflux pump, as well. […]
(§2) The minimum inhibitory concentrations (MICs) were determined using the broth micro-dilution method in 96-well plate format according to the Clinical and Laboratory Standards Institute […]
(§3) guidelines8 and European Committee on Antimicrobial Susceptibility Testing recommendations9. The bacterial suspension of the specific bacterial strain equivalent to the 0.5 McFarland turbidity standard was diluted with cation-adapted Mueller Hinton broth with TES (Thermo Fisher Scientific) to obtain a […]
(§4) The compounds dissolved in DMSO and inoculum were mixed together and incubated for 20 h at 35 °C.

E. coli D22 [2] = test: microbe, parasite or virus in culture; conditions: Escherichia coli
Experimental: as §1, §2, §3, §4

S. aureus (ATCC 29213) [3] = test: microbe, parasite or virus in culture; conditions: Staphylococcus aureus, ATCC29213, read-out: MIC S. aureus (ATCC 29213)
Experimental: as §1, §2, §3, §4

[4] = tested on: E. coli N43 (CGSC no. 5583); test: microbe, parasite or virus in culture; conditions: Escherichia coli
Experimental: as §1, §2, §3, §4

MRSA (QA-12.1) = test: microbe, parasite or virus in culture; conditions: Staphylococcus aureus, read-out: MIC MRSA (QA-12.1)
Experimental: as §1, §2, §3, §4

Klebsiella pneumoniae = test: microbe, parasite or virus in culture
Experimental: as §1, §2, §3, §4

[5] = tested on: Salmonella alachua RDK 030c (QA-1482/04); test: microbe, parasite or virus in culture
Experimental: as §1, §2, §3, §4

[6] = tested on: Pseudomonas aeruginosa RDK 184 (DSM 939); test: microbe, parasite or virus in culture
Experimental: as §1, §2, §3, §4

[7] = tested on: Streptococcus agalactiae RDK 047 (QA-990/02); test: microbe, parasite or virus in culture
Experimental: as §1, §2, §3, §4

[8] = tested on: Enterococcus faecalis DRK 057 (ATCC 29212); test: microbe, parasite or virus in culture
Experimental: as §1, §2, §3, §4

E. coli (ATCC 25922) [9] = test: microbe, parasite or virus in culture; conditions: Escherichia coli, ATCC25922, read-out: MIC E. coli (ATCC 25922)
Experimental: as §1, §2, §3, §4

E. coli (ATCC 25922) [10] = conditions: Table S3; ref 10 (SI); cited from earlier work
E. coli D22 [11] = conditions: Table S3; mutation in the lpxC gene that increases membrane permeability; ref 10 (SI); cited from earlier work
S. aureus (ATCC 29213) [12] = conditions: Table S3; ref 10 (SI); cited from earlier work
[13] = tested on: Salmonella alachua RDK 030c (QA-1482/04); conditions: Table S3; ref 10 (SI); cited from earlier work
[14] = tested on: Pseudomonas aeruginosa RDK 184 (DSM 939); conditions: cited from earlier work; for MIC P. aeruginosa RDK 184 (DSM 939): Table S3, ref 10 (SI)
[15] = tested on: E. coli N43 (CGSC no. 5583); conditions: Table S3; AcrA knockout strain; ref 10 (SI); cited from earlier work
[16] = tested on: Streptococcus agalactiae RDK 047 (QA-990/02); conditions: Table S3; ref 10 (SI); cited from earlier work
MRSA (QA-11.7) [17] = conditions: Table S3; ref 10 (SI); cited from earlier work
[18] = tested on: Enterococcus faecalis DRK 057 (ATCC 29212); conditions: Table S3; ref 10 (SI); cited from earlier work

COc1ccc2nccc(CCN3CCC(NCc4ccc(I)c(F)c4)CC3)c2n1 [Compound 6]
IC50 (S. aureus DNA gyrase): 4 nM
IC50 (S. aureus topoIV): 90 ± 102 nM
remaining activity at 10 µM (Human topoisomerase IIα): 97.7 ± 1.31%
MIC (MRSA (QA-11.7) [1]): 0.031 µM and 0.016 µg/mL
MIC (E. coli D22 [2]; D22, read-out: MIC E. coli D2): 0.119 µM
MIC (E. coli D22 [2]; D22, read-out: MIC E. coli D22): 0.062 µg/mL
MIC (S. aureus (ATCC 29213) [3]): 0.015 µM and 0.008 µg/mL
MIC ([4]; read-out: MIC E. coli N43 (CGSC no. 5583)): 0.016 µg/mL
MIC ([4]; read-out: MIC E. coli N43 (CGSC# 5583)): 0.031 µM
MIC (MRSA (QA-12.1)): 0.031 µM and 0.016 µg/mL
MIC (Klebsiella pneumoniae; read-out: MIC K. pneumoniae): 15.4 µM
MIC (Klebsiella pneumoniae; read-out: MIC Klebsiella pneumoniae): 8 µg/mL
MIC ([5]; read-out: MIC S. alachua RDK 030c (QA-1482/04)): 3.84 µM
MIC ([5]; read-out: MIC Salmonella alachua RDK 030c (QA-1482/04)): 2 µg/mL
MIC ([6]; DSM939, read-out: MIC P. aeruginosa RDK 184 (DSM 939)): 30.7 µM
MIC ([6]; DSM939, read-out: MIC Pseudomonas aeruginosa RDK 184 (DSM 939)): 16 µg/mL
MIC ([7]; read-out: MIC S. agalactiae RDK 047 (QA-990/02)): 0.48 µM
MIC ([7]; read-out: MIC Streptococcus agalactiae RDK 047 (QA-990/02)): 0.25 µg/mL
MIC ([8]; ATCC29212, read-out: MIC E. faecalis DRK 057 (ATCC 29212)): 0.48 µM
MIC ([8]; ATCC29212, read-out: MIC Enterococcus faecalis DRK 057 (ATCC 29212)): 0.25 µg/mL
MIC (E. coli (ATCC 25922) [9]): 0.961 µM and 0.5 µg/mL

COc1ccc2nccc(CCN3CCC(NCc4ccc(I)cc4)CC3)c2n1 [Compound 3]
MIC E. coli (ATCC 25922) (E. coli (ATCC 25922) [10]): 3.98 µM (≈ 2 µg/mL)
MIC E. coli D2 (E. coli D22 [11]): 0.249 µM (≈ 0.125 µg/mL)
MIC S. aureus (ATCC 29213) (S. aureus (ATCC 29213) [12]): 0.016 µM (≈ 0.00804 µg/mL)
MIC S. alachua RDK 030c (QA-1482/04) [13]: 15.9 µM (≈ 7.99 µg/mL)
MIC P. aeruginosa RDK 184 (DSM 939) [14]: 63.7 µM (≈ 32 µg/mL)
MIC E. coli N43 (CGSC# 5583) [15]: 0.155 µM (≈ 0.0779 µg/mL)
MIC S. agalactiae RDK 047 (QA-990/02) [16]: 0.249 µM (≈ 0.125 µg/mL)
MIC MRSA (QA-11.7) (MRSA (QA-11.7) [17]): 0.016 µM (≈ 0.00804 µg/mL)

COc1ccc2nccc(CCN3CCC(NCc4ccc(Br)cc4)CC3)c2n1 [Compound 2]
MIC E. coli (ATCC 25922) (E. coli (ATCC 25922) [10]): 4.39 µM (≈ 2 µg/mL)
MIC E. coli D2 (E. coli D22 [11]): 0.274 µM (≈ 0.125 µg/mL)
MIC S. aureus (ATCC 29213) (S. aureus (ATCC 29213) [12]): 0.068 µM (≈ 0.031 µg/mL)
MIC S. alachua RDK 030c (QA-1482/04) [13]: 35.1 µM (≈ 16 µg/mL)
MIC P. aeruginosa RDK 184 (DSM 939) [14]: 281 µM (≈ 128 µg/mL)
MIC E. coli N43 (CGSC# 5583) [15]: 0.274 µM (≈ 0.125 µg/mL)
MIC E. faecalis DRK 057 (ATCC 29212) [18]: 2.20 µM (≈ 1 µg/mL)
MIC S. agalactiae RDK 047 (QA-990/02) [16]: 1.098 µM (≈ 0.5 µg/mL)
MIC MRSA (QA-11.7) (MRSA (QA-11.7) [17]): 0.136 µM (≈ 0.0619 µg/mL)

COc1ccc2nccc(CCN3CCC(NCc4ccc(Cl)cc4)CC3)c2n1 [Compound 1]
MIC E. coli (ATCC 25922) (E. coli (ATCC 25922) [10]): 9.73 µM (≈ 4 µg/mL)
MIC E. coli D2 (E. coli D22 [11]): 4.87 µM (≈ 2 µg/mL)
MIC S. aureus (ATCC 29213) (S. aureus (ATCC 29213) [12]): 0.304 µM (≈ 0.125 µg/mL)
MIC S. alachua RDK 030c (QA-1482/04) [13]: 77.9 µM (≈ 32 µg/mL)
MIC P. aeruginosa RDK 184 (DSM 939) [14]: > 311 µM
MIC Pseudomonas aeruginosa RDK 184 (DSM 939) [14]: >128 µg/mL
MIC E. coli N43 (CGSC# 5583) [15]: 1.22 µM (≈ 0.501 µg/mL)
MIC E. faecalis DRK 057 (ATCC 29212) [18]: 2.43 µM (≈ 0.999 µg/mL)
MIC S. agalactiae RDK 047 (QA-990/02) [16]: 2.43 µM (≈ 0.999 µg/mL)
MIC MRSA (QA-11.7) (MRSA (QA-11.7) [17]): 1.22 µM (≈ 0.501 µg/mL)
